Literature values as cited in patent US20100331927A1, “FEEDBACK-CONTROLLED METHOD FOR DELIVERING PHOTODYNAMIC THERAPY AND RELATED INSTRUMENTATION” (priority 2007, published 2010).

Test system: rat bladder tumor model
Details: 60s/60s light interval/dark interval

Compound: C=Cc1c(C)c2cc3nc(cc4[nH]c(cc5nc(cc1[nH]2)C(C)=C5CCC(=O)O)c(CCC(=O)OC)c4C)C1(C)C3=CC=C(C(=O)OC)C1C(=O)OC (stereo not shown) [BPD-MA]
- improvement of phototoxicity by light fractionation: 1000 fold
